In patent US4582839A, “2,4-thiazolidinediones” (Takeda Chemical Industries, Ltd., priority 1985, dated 1986):
Where two headings read alike, the source gives them in different places.

Legend:
[1] = Acute oral toxicity (LD50) in rat; conditions: in vivo, administered orally
Method: With reference to the method of administration, they are normally usable orally for example in the form of tablets, capsules, powders, granules, etc., but can also be administered parenterally in the form of injectable solutions, suppositories, pellets, etc., as the case may be. In the case of their being employed as a therapeutic agent for diabetes, they can be normally administered orally in daily doses of 0.05 mg to 10 mg/kg or parenterally in daily doses of 0.01 mg to 10 mg/kg, per adult human, and in the case of their being utilized as a therapeutic agent for hyperlipemia, they can be normally given orally in daily doses of 0.05 mg to 10 mg/kg or parenterally in daily doses of 0.01 mg to 10 mg/kg, per adult human, whereby it is desirable to administer such quantities once daily or intermittently twice to four times weekly.

KKAy mice = assay: Blood sugar- and lipid-lowering activity in mice (test compound 0.005% in diet, 4 days); format: in vivo; conditions: Mus musculus, feed or water, 96 h, 0.005% in powder diet, male KKAy mice
Method: Blood sugar- and lipid-lowering activity in mice.
0.005% of a test compound was mixed with a powder diet (CE-2, produced by CLEA JAPAN), and KKAy mice (male, 8 to 10 weeks of age, 5 mice/group) were placed on the diet for 4 days, and allowed free access to water throughout the experiment. Blood samples were taken from the orbital veins and assayed for blood sugar by the glucose oxidase method and for plasma triglyceride by the enzyme method in which the produced glycerol was determined by means of Cleantech TG-S Kit (Yatron), respectively. The respective values are expressed in terms of rate of lowering (%) from the values of control group not receiving the test compound.

[2] = enzyme method (Cleantech TG-S Kit), read-out: Hypolipemic activity (rate of lowering of plasma triglyceride from control group)
[3] = glucose oxidase method, read-out: Hypoglycemic activity (rate of lowering of blood sugar from control group)

Row | Structure (SMILES) | LD50 [1] [mg/kg] | inhibition in vivo at 0.005 %, 0.005 % in diet (KKAy mice; [2]) [%] | inhibition in vivo at 0.005 %, 0.005 % in diet (KKAy mice; [3]) [%]
1 | Cc1cccc(C(O)COc2ccc(CC3SC(=O)NC3=O)cc2)n1 (stereo not shown) [Example 1, 5-{4-[2-hydroxy-2-(6-methyl-2-pyridyl)ethoxy]benzyl}-2,4-thiazolidinedione] | ≥ 5000 | 47 | 45
2 | Cc1cc(C)nc(C(O)COc2ccc(CC3SC(=O)NC3=O)cc2)c1 (stereo not shown) [Example 10, 5-{4-[2-(4,6-dimethyl-2-pyridyl)-2-hydroxyethoxy]benzyl}-2,4-thiazolidinedione] |  | 47 | 40
3 | Cc1cccnc1C(CO)COc1ccc(CC2SC(=O)NC2=O)cc1 (stereo not shown) [Example 2, 5-{4-[3-hydroxy-2-(3-methyl-2-pyridyl)propoxy]-benzyl}-2,4-thiazolidinedione] | ≥ 5000 | 11 | 22
4 | Cc1cccnc1C(O)COc1ccc(CC2SC(=O)NC2=O)cc1 (stereo not shown) [Example 7, 5-{4-[2-Hydroxy-2-(3-methyl-2-pyridyl)ethoxy]benzyl}-2,4-thiazolidinedione] |  | 58 | 53
5 | CCc1ccc(C(O)COc2ccc(CC3SC(=O)NC3=O)cc2)nc1 (stereo not shown) [Example 3, 5-{4-[2-(5-ethyl-2-pyridyl)-2-hydroxyethoxy]benzyl}-2,4-thiazolidinedione] | ≥ 5000 | 35 | 32
6 | O=C1NC(=O)C(Cc2ccc(OCC(O)c3ccccn3)cc2)S1 (stereo not shown) [Example 8, 5-{4-[2-Hydroxy-2-(2-pyridyl)ethoxy]benzyl}-2,4-thiazolidinedione] |  | 53 | 47
7 | Cc1ccc(C(O)COc2ccc(CC3SC(=O)NC3=O)cc2)nc1 (stereo not shown) [Example 9, 5-{4-[2-Hydroxy-2-(5-methyl-2-pyridyl)ethoxy]benzyl}-2,4-thiazolidinedione] |  | 19 | 35
8 | CC(=O)OC(COc1ccc(CC2SC(=O)NC2=O)cc1)c1cccc(C)n1 (stereo not shown) [Example 5, 5-{4-[2-acetoxy-2-(6-methyl-2-pyridyl)ethoxy]benzyl}-2,4-thiazolidinedione] | ≥ 5000 |  | 
9 | CCc1ccc(C(CO)COc2ccc(CC3SC(=O)NC3=O)cc2)nc1 (stereo not shown) [5-{4-[2-(5-ethyl-2-pyridyl)-3-hydroxypropoxy]benzyl}-2,4-thiazolidinedione] | ≥ 5000 |  | 
10 | CCc1ccc(C(CO)COc2ccc(CC3SC(=O)NC3=O)cc2)nc1 (stereo not shown) [Example 4, 5-{4-[2-(5-ethyl-2-pyridyl)-3-hydroxypropoxy]benzyl}-2,4-thiazolidinedione] |  | 38 | 45
11 | CCc1ccc(C(COC(C)=O)COc2ccc(CC3SC(=O)NC3=O)cc2)nc1 (stereo not shown) [Example 6, 5-{4-[3-acetoxy-2-(5-ethyl-2-pyridyl)propoxy]benzyl}-2,4-thiazolidinedione] | ≥ 5000 |  | 
